Where two headings read alike, the source gives them in different places.
Tests used:
[1] = test system: Root-knot nematode, Meloidogyne incognita J2 larvae; settings: potted tomato, scored 4 weeks following inoculation
Source text: Soil Nematicide Assay Targeting Root-knot Nematode, Meloidogyne Incognita on Potted Tomato
The test compound is solubilized in acetone and diluted with water to the required test concentration. Silty loam soil in a 3 inch pot with a 3-week-old tomato transplant is drenched with the test solution. Four thousand root-knot nematode Meloidogyne incognita J2 larvae are dispensed in a aqueous suspension onto the soil. The pots are kept in the greenhouse and 4 weeks following inoculation of the pots, plant roots are washed free of soil and scored for the degree of root galling using the root-knot galling index identified below.

[2] = test system: M. incognita (Root Knot Nematode) larvae; assay: Evaluation of test compounds against M. incognita larvae in microtiter plate wells (movement score); format: in vivo; settings: larvae scored for movement after 20-24 hours; note: key: A score of '9' indicates inactive worms with a straight, sticklike morphology; A score of '8' indicates inactive worms with a limp, curled or curved morphology; A score of '7' indicates dead/paralyzed worms after 72 hours
In short: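 Newly emerged M. incognita larvae in S Medium (buffered salt solution), 50-65 worms per well, exposed to test compounds in sealed microtiter wells. Movement scored after 20-24 h incubation; wells with obviously dead/paralyzed larvae scored positive. A score of "7" denotes dead/paralyzed worms after […].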

[3] = test system: C. elegans (Bristol strain); assay: Evaluation of test compounds against C. elegans (motility, 96-well plate); format: in vivo; parameters: key: 9=complete kill in 4 hours; 8=complete kill in 24 hours; 7=markedly reduced motility in approximately 95% of worms in 24 hours; 0=normal motility, same as controls; settings: motility at 4 and 24 hours
In short: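 Bristol-strain C. elegans in Na buffer added to wells containing dried compound (applied in 80% acetone) and incubated at 20 °C. Motility of adults and larvae scored subjectively but semi-quantitatively under a dissecting microscope at 4 and 24 h after immersion, plates tapped before reading.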

[4] = test system: Spodoptera eridania, eggs-southern armyworm (SAW-Eggs); assay: Southern armyworm eggs (SAW-Eggs) treated diet test; format: in vivo; parameters: key: 0 = no effect; 1 = 10-25% kill; 2 = 26-35% kill; 3 = 36-45% kill; 4 = 46-55% kill; 5 = 56-65% kill; 6 = 66-75% kill; 7 = 76-85% kill; 8 = 86-99% kill; 9 = 100% kill; settings: mortality after 7 days
In short: (§1)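 Compounds dissolved at 10,000 ppm in 35% acetone/water, diluted with water, applied to artificial diet in wells and dried. Southern corn rootworm or southern armyworm eggs placed on treated diet under vented covers; mortality counted after 7 days.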

[5] = test system: Diabrotica undecimpunctata howardi, eggs-southern corn rootworm (SCR-Eggs); assay: Southern corn rootworm eggs (SCR-Eggs) treated diet test; format: in vivo; parameters: key: 0 = no effect; 1 = 10-25% kill; 2 = 26-35% kill; 3 = 36-45% kill; 4 = 46-55% kill; 5 = 56-65% kill; 6 = 66-75% kill; 7 = 76-85% kill; 8 = 86-99% kill; 9 = 100% kill; settings: mortality after 7 days
In short: as §1

[6] = test system: Spodoptera eridania, 2nd instar larvae, southern armyworm (SAW); assay: Southern armyworm (SAW) leaf dip test; format: in vivo; parameters: key: 0 = no effect; 1 = 10-25% kill; 2 = 26-35% kill; 3 = 36-45% kill; 4 = 46-55% kill; 5 = 56-65% kill; 6 = 66-75% kill; 7 = 76-85% kill; 8 = 86-99% kill; 9 = 100% kill
In short: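 Compound is dissolved at 10,000 ppm in 35% acetone/water, then diluted with water. Lima bean leaves are dipped for 3 seconds, dried and placed with ten 2nd instar larvae on damp filter paper. Mortality, reduced feeding and molting interference are scored at 5 days.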

[7] = test system: Diabrotica virgifera virgifera Leconte, 2nd instar western corn rootworm (WCR); assay: Western corn rootworm (WCR) soil test; format: in vivo; parameters: key: 0 = no effect; 1 = 10-25% kill; 2 = 26-35% kill; 3 = 36-45% kill; 4 = 46-55% kill; 5 = 56-65% kill; 6 = 66-75% kill; 7 = 76-85% kill; 8 = 86-99% kill; 9 = 100% kill
In short: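 Compound in 35% acetone/water applied to talc at 1.25 mg active ingredient per jar (about 50 kg/ha), solvent evaporated, then mixed with millet seed and moist soil. Ten 2nd-instar larvae per jar; mortality counted after 5 days, missing larvae scored dead.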

[8] = test system: Tetranychus urticae (OP-resistant strain), 2-spotted spider mite (TSM); assay: 2-spotted spider mite (TSM) plant dip test; format: in vivo; parameters: key: 0 = no effect; 1 = 10-25% kill; 2 = 26-35% kill; 3 = 36-45% kill; 4 = 46-55% kill; 5 = 56-65% kill; 6 = 66-75% kill; 7 = 76-85% kill; 8 = 86-99% kill; 9 = 100% kill; settings: mortality after 2 days
In short: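 OP-resistant mites (~100 per leaf) were transferred onto Sieva lima bean primary leaves about 2 h before treatment. Infested plants were dipped for 3 s in compound from a 10,000 ppm stock in 35% acetone/water, diluted with water. Mortality was counted after 2 days.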

[9] = test system: Aphis gossypii, cotton aphid (CA); assay: Cotton aphid (CA) cotyledon dip test; format: in vivo; parameters: key: 0 = no effect; 1 = 10-25% kill; 2 = 26-35% kill; 3 = 36-45% kill; 4 = 46-55% kill; 5 = 56-65% kill; 6 = 66-75% kill; 7 = 76-85% kill; 8 = 86-99% kill; 9 = 100% kill; settings: mortality after 5 days
In short: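 Cotyledon-stage cotton plants infested overnight via a heavily infested leaf, then dipped in test solution (compound in 35% acetone/water, diluted with water) and dried. Mortality counted after 5 days.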

Structure (SMILES)	Galling Index ([1]; Rate 10 ppm soil drench)	Galling Index ([1]; Rate 25 ppm soil drench)	Galling Index ([1]; Rate 50 ppm soil drench)	M. incognita (150 ppm) score [2]	Rating Against C. elegans (150 ppm) [3]	SAW Eggs (300 ppm) rating [4]	SCR Eggs (1000 ppm) rating [5]	SAW (300 ppm) rating [6]	WCR (50 ppm) rating [7]	TSM (300 ppm) rating [8]	CA (300 ppm) rating [9]
O=C(O)CSC(C[N+](=O)[O-])c1ccccc1 (stereo not drawn) [Example 1, {[alpha-(nitromethyl)benzyl]thio}-acetic acid]	1 (10)	0 (0)	0 (0)	9	9	0	0				
CCCOC(=O)CSC(C[N+](=O)[O-])c1ccc2ccccc2c1 (racemic) [Example 112]				0	9	8 (8 = 86-99% kill)	0	0	0	0	0
O=C(O)CSC(C[N+](=O)[O-])c1ccc(OC(F)(F)F)cc1 (stereo not drawn) [Example 127]				9	9	0	0	0	0	0	0
COC(=O)CSC(C[N+](=O)[O-])c1cccnc1 (stereo not drawn) [Example 171]				9	7	0	0	0	0	0	0
COC(=O)CSC(C[N+](=O)[O-])c1cccc(OC)c1 (stereo not drawn) [Example 55]				9	8	0	0	4 (4 = 46-55% kill)	0	0	0

— patent US6358883B1, “Pesticidal and parasiticidal use of 1-aryl-1-(substituted thio, sulfinyl and sulfonyl)-2-nitroethane compounds” (American Cyanamid Company, priority 1998, dated 2002)
